test system: Plasmodium falciparum; experiment: GSK_TCMDC: Inhibition of Plasmodium falciparum 3D7 in whole erythrocytes, using parasite LDH activity as an index of growth.; assay type: functional, organism-based; conditions: Plasmodium falciparum, 3D7

Row | SMILES | XC50
1 | O=[N+]([O-])c1ccc(/C=N/O)nc1 | 0.872 µM
2 | CCc1nc(N)nc(N)c1-c1ccc(C(C)(C)C)cc1 | 0.235 µM
3 | CCOc1cc(Cc2cnc(N)nc2N)cc(OC)c1OC | 0.913 µM
4 | Cc1ccc(NC(=O)C2CCC2)cc1-c1ccc(C(=O)NCC2CC2)cc1 | 0.742 µM
5 | COc1ccccc1C1CCN(C2CCC(NC(=O)/C=C/c3ccc(F)c(F)c3)CC2)CC1 (centres undefined) | 1.32 µM
6 | COc1ccc(NC(=O)NC2CCN(c3ccnc4cc(Cl)ccc34)C2)cc1 (centres undefined) | 0.0993 µM
7 | CC(C)CCN1CCC(Oc2ccc(NC(=O)c3cccs3)cc2Cl)CC1 | 0.341 µM
8 | c1ccc2cc(CNCCCN3CCN(CCCNCc4ccc5ccccc5c4)CC3)ccc2c1 | 0.545 µM
9 | CCCCCN1CCC(NS(=O)(=O)c2cccc(C(=O)Nc3ccc(Cl)cc3)c2)CC1 | 0.918 µM
10 | O=C(NC1CCC(N2CCN(c3cccc4[nH]ccc34)CC2)CC1)c1cc2cccnc2[nH]1 (centres undefined) | 0.492 µM
11 | O=C(Nc1ccc(Cl)c(Cl)c1)N1CCC(NCc2cccc([N+](=O)[O-])c2)CC1 | 0.763 µM
12 | COc1ccc2c(=O)c(I)c(C)[nH]c2c1 | 0.44 µM
13 | Cc1ncc(CN2CCC(C(=O)Nc3ccc(-c4nc5ccccc5o4)cc3)CC2)s1 | 0.393 µM
14 | CCCc1ccc(Cc2cnc3nc(N)nc(N)c3c2C)cc1 | 0.283 µM
15 | O=C(Nc1cccc(-c2cccc(-c3nc4ccccc4[nH]3)c2)c1)c1ccoc1 | 0.741 µM
16 | NC1CCN(Cc2ccc(-c3ccc(-c4nc5ccccc5[nH]4)cc3)cc2)C1 (centres undefined) | 0.147 µM
17 | O=[N+]([O-])c1c(O)nc2c(c1O)CCC2 | 1.05 µM
18 | OCC1CCN(Cc2cccc(C#Cc3cc4ncnc(Nc5ccc(OCc6cccc(F)c6)c(Cl)c5)c4s3)n2)CC1 | 0.552 µM
19 | O=C(Nc1ccc(Cl)cc1)c1ccc(CN2CCCN(Cc3cccc(Cl)c3)CC2)cc1 | 0.826 µM
20 | CC(C)(C)c1ccc(-c2nc3c(ccc4nc(N)nc(N)c43)[nH]2)cc1 | 0.158 µM
21 | CCCSc1nc2c(c(=O)n1CCc1ccccc1)C1(CCCC1)Cc1ccccc1-2 | 0.702 µM
22 | Cc1[nH]c(C)c(-c2ccc(-c3ccccc3F)nc2)c(=O)c1Cl | 0.25 µM
23 | O=C(O)CCSc1ncnc2[nH]cnc12 | 0.129 µM
24 | Nc1nc(N)c2c(ccc3c2ccn3Cc2cccc3ccccc23)n1 | 0.0032 µM
25 | CC(C)(C)SC1SC(SC(C)(C)C)C(OC(=O)c2ccccc2)C(OC(=O)c2ccccc2)C1OC(=O)c1ccccc1 (centres undefined) | 0.937 µM

Row | SMILES | XC50
26 | O=C(NC1CCC(N2CCC3(CC2)C(=O)NCN3c2ccccc2)CC1)c1cc2ccccc2[nH]1 (centres undefined) | 0.679 µM
27 | Cc1cc2cc(/C=C/C(=O)NC3CCC(CCN4CCc5ccc(C#N)cc5CC4)CC3)ccc2[nH]1 (centres undefined) | 0.88 µM
28 | CC1CCc2c(C(=O)Nc3c(F)cc(F)cc3Br)csc2C1 (centres undefined) | 0.752 µM
29 | CCc1cc(NCc2ccncc2)nc(Nc2ccc(F)cc2)n1 | 1.33 µM
30 | O=S(=O)(Nc1cccc(CCN2CCC(N3CCCCC3)CC2)c1)c1ccc(Oc2ccccc2)nc1 | 0.928 µM
31 | Cc1ccccc1C1CCN(C2CCC(NC(=O)/C=C/c3ccc(C(F)(F)F)cc3)CC2)CC1 (centres undefined) | 1.04 µM
32 | O=C(/C=C/c1cccc(Br)c1)NCCCCCN1CCC(c2c[nH]c3ccccc23)CC1 | 0.634 µM
33 | COc1ccc(C[C@H](N)C(=O)N[C@H]2[C@@H](O)[C@H](n3cnc4c(N(C)C)ncnc43)O[C@@H]2CO)cc1 | 0.299 µM
34 | CCN1CCN(c2cc(C)c3cc(NC(=O)c4ccc(Br)o4)ccc3n2)CC1 | 0.755 µM
35 | CCCCCN1CCCN(Cc2cccc(NC(=O)c3ccc(-c4ccccc4)cc3)c2)CC1 | 0.697 µM
36 | O=S(=O)(Nc1cccc(CCN2CCC(N3CCCCC3)CC2)c1)c1cccc(C(F)(F)F)c1 | 0.976 µM
37 | COc1ccc(CCNC(=O)c2ccccc2O)cc1-c1ccc(C(C)(C)C)cc1 | 0.563 µM
38 | Cc1[nH]c(C)c(-c2ccc(-c3cccc(OC(F)(F)F)c3)nc2)c(=O)c1Cl | 0.0745 µM
39 | COCc1nc(-c2ccccc2)nc(N2CCN(C(=O)NC(C)C)CC2)c1Cc1ccccc1F | 1 µM
40 | CCN(CCCN1CCCCC1)c1cc(C)nc(Nc2cc(C)ccc2C)n1 | 0.664 µM
41 | CN(C)CCOc1ccc(NC(=O)Nc2ccnc3c(Br)cccc23)cc1Cl | 0.842 µM
42 | Cc1ccc(-n2cc(CNCCCn3ccnc3)c(-c3cccc(C)c3)n2)cc1 | 0.773 µM
43 | CN(c1cc(NC(=O)c2ccc(F)cc2)ccn1)C1CCN(Cc2cccc(F)c2)CC1 | 0.495 µM
44 | CC(C)[C@@H](NC(=O)NC1CCC(CCN2C3CCC2CC(OC(=O)C(CO)c2ccccc2)C3)CC1)C(O)(c1ccccc1)c1ccccc1 (some centres undefined) | 0.812 µM
45 | Cc1c(C(=O)NC2CCC(CN3CCC(c4c[nH]c5ccccc45)CC3)CC2)cnn1-c1c(Cl)cc(Cl)cc1Cl (centres undefined) | 0.711 µM
46 | NS(=O)(=O)c1cccc(-c2ccc3nccc(-c4cccc(S(N)(=O)=O)c4)c3c2)c1 | 1.27 µM
47 | CCCCCCN1CCCN(Cc2ccc(C(=O)Nc3ccc(Cl)cc3)cc2)CC1 | 1.21 µM
48 | O=C(NCC(NCCCNc1cc(=O)c2ccccc2[nH]1)c1cc(Br)cc(Br)c1)C1=CCCC1 (centres undefined) | 0.901 µM
49 | O=S(=O)(Nc1cccc(CCN2CCC(N3CCCCC3)CC2)c1)c1ccc2c(c1)OCCO2 | 1.23 µM
50 | Cc1cc(NC(=O)c2cc(Br)ccc2Cl)n(-c2nc(C)c(C)c(=O)[nH]2)n1 | 1.13 µM

Row | SMILES | XC50
51 | COc1ccc2nccc([C@@H](O)CN3CCC(NCCOc4ccccc4C(F)(F)F)CC3)c2c1 | 0.753 µM
52 | COc1cc(NC(=O)/C=C/c2ccccc2OC(F)(F)F)cc(OCCN2CCCCC2)c1 | 0.19 µM
53 | CC(=O)Nc1cccc(C(=O)Nc2nc3ccc(-c4cc(=O)[nH]c(Nc5ccccc5Cl)n4)cc3[nH]2)c1 | 0.689 µM
54 | Clc1ccccc1CCNCC1CCN(CC2CCCCC2)CC1 | 0.692 µM
55 | CN(C)c1cccc2c1nc(-c1ccco1)n2CC1CCCN1 (centres undefined) | 0.97 µM
56 | Nc1ccc(-c2cnc3[nH]cc(-c4ccc(C(=O)O)cc4)c3c2)cn1 | 0.964 µM
57 | CCOC(=O)CC[C@H](NC(=O)c1ccc(NS(=O)(=O)c2ccc(-c3cnc(N)[nH]c3=O)cc2)cc1)C(=O)OCC | 0.174 µM
58 | COc1ccc(C(C(=O)NC2CCN(C[C@H](O)c3ccnc4ccc(OC)cc34)CC2)N2CCN(c3ccc(Cl)c(Cl)c3)CC2)cc1 (some centres undefined) | 0.204 µM
59 | Cc1cc(NCCC(=O)NCCOc2ccccc2)nc(NCCc2ccccc2)n1 | 1.23 µM
60 | CCOC(=O)c1ccc(NC(=O)Nc2cccc(-c3cccc(-c4nc5ccccc5[nH]4)c3)c2)cc1 | 0.0687 µM
61 | O=C(/C=C/c1ccc(Cl)c(Cl)c1)Nc1cccc(CN2CCC(c3c[nH]c4ccc(O)cc34)CC2)c1 | 0.945 µM
62 | O=C(CCN1CCCCC1)Nc1ccc(Nc2nccc(NCC(O)c3ccccc3)n2)cc1 (centres undefined) | 0.721 µM
63 | Cc1ccccc1C1CCN(C2CCC(NC(=O)c3ccc(-c4cccs4)s3)CC2)CC1 (centres undefined) | 1.03 µM
64 | S=C(NCC1CCCCC1)NC1CCC(CN2CCC(c3c[nH]c4ccccc34)CC2)CC1 (centres undefined) | 1.11 µM
65 | CC(C)C1C(O)=C(c2ccc3ccccc3c2)C(=O)N1CC1CCCCC1 (centres undefined) | 1.13 µM
66 | c1ccc(-c2csc(Nc3nc4cc5c(cc4s3)OCO5)n2)nc1 | 0.579 µM
67 | CCOc1ccc(Br)cc1/C=C/C(=O)Nc1ccc2c(c1)C1CCC2N1C (centres undefined) | 1.05 µM
68 | CCCCCN1CCCC(NS(=O)(=O)c2cccc(C(=O)Nc3cccc(C(F)(F)F)c3)c2)C1 (centres undefined) | 1.07 µM
69 | O=C(NCc1ccccc1)c1nn(CCCN2CCC(N3CCCC3)CC2)cc1-c1ccc(Cl)c(Cl)c1 | 0.675 µM
70 | CCNc1cc(C)nc(Nc2ccc(NC(=O)c3ccccc3)cc2)n1 | 1.02 µM
71 | COc1ccc(Nc2nc(NC3CCN(Cc4ccccc4)CC3)cc(-c3ccncc3)n2)cc1 | 0.992 µM
72 | COc1ccccc1/C=C/C(=O)N(C)C1CCN(CCCCCNC(=O)/C=C/c2ccc(Cl)c(Cl)c2)C1 (centres undefined) | 0.867 µM
73 | CN1CCN(S(=O)(=O)c2cccc(Nc3nccc(N(C)c4ccc5c(c4)nc(NC(=O)c4cccs4)n5C)n3)c2)CC1 | 0.746 µM
74 | CC(C)CCn1c(Sc2ccc(C#N)c([N+](=O)[O-])c2)nnc1-c1cccc(Cl)c1 | 0.673 µM
75 | O=C(NC1CCCCC1)c1csc(C2CCCN(C(=O)c3ccc(O)c(-c4cccc(C(F)(F)F)c4)c3)C2)n1 (centres undefined) | 1.67 µM

Row | SMILES | XC50
76 | CCn1c(-c2nonc2N)nc2c(-c3cccc(NC(=O)Nc4ccc(Cl)cc4)c3)ncc(OCCCN)c21 | 0.828 µM
77 | CCC(C)(C)c1ccc(N2C(N)=NC(N)=NC2(C)C)cc1 | 0.0118 µM
78 | CC(C)(C)Oc1ccc(C[C@@H]2NC3(C(=O)N(Cc4ccc(Cl)c(Cl)c4)c4ccccc43)C3C(=O)N(c4ccc(Br)cc4)C(=O)C32)cc1 (some centres undefined) | 1.04 µM
79 | NC(=O)C1CCN(Cc2ccc(-c3cccc(-c4nc5cc(F)ccc5[nH]4)c3)cc2)CC1 | 0.879 µM
80 | O=C(c1cccs1)N1N=C(c2cccs2)CC1c1cccc([N+](=O)[O-])c1 (centres undefined) | 0.82 µM
81 | COC1CCC(C(=O)Nc2ccc(-c3cccc(-c4nc5cc(C(F)(F)F)ccc5[nH]4)c3)cc2)CC1 (centres undefined) | 0.547 µM
82 | N#Cc1cncc(-c2nc3c(N4CCN(c5cnccn5)CC4)cccc3n2CCNCc2ccccc2)c1 | 0.912 µM
83 | Cc1cc(C(=O)CN2C(=O)NC3(CCCc4ccccc43)C2=O)c(C)n1Cc1ccc(F)cc1 (centres undefined) | 0.97 µM
84 | CCOc1ccc2[nH]c(C)cc(=NN=Cc3cccc(F)c3)c2c1 | 0.736 µM
85 | Cc1nnc(NC(=O)c2cn(-c3ccccc3)nc2-c2ccccc2C)o1 | 0.565 µM
86 | O=C(Nc1cccc(-c2ccc(-c3nc4ccccc4[nH]3)cc2)c1)c1ccncc1 | 0.529 µM
87 | COc1ccc2ncc(F)c(CCN3CC[C@H](NCc4cc5c(s4)CCCN5)[C@H](O)C3)c2n1 | 0.962 µM
88 | CC(CNC(=O)[C@H]1CNCCN1C(=O)CCCc1ccccc1)c1ccccc1 (some centres undefined) | 0.915 µM
89 | CNCCCNc1ccnc2cc(Cl)ccc12 | 0.0624 µM
90 | CC(C)c1ccc(OCC(O)CN(CCN2CCOCC2)C(=O)Nc2ccc(Br)cc2)cc1 (centres undefined) | 0.717 µM
91 | CCC(C)NS(=O)(=O)c1ccc2nc(Nc3ccc(C)c(Cl)c3)n(C3CCCCC3)c2c1 (centres undefined) | 0.511 µM
92 | O=C(CCN1C(=O)c2ccccc2C1=O)N1CCN(CC=Cc2ccccc2)CC1 | 0.541 µM
93 | CCCCC(CC)CN1C(=O)C(c2ccccc2)(c2ccccc2)N=C1N (centres undefined) | 0.189 µM
94 | CO[C@@H]1C[C@@H](C(=O)Nc2ccccc2)N(c2ccc(C#N)c3ccccc23)C1 | 0.907 µM
95 | O=C(Nc1cccc(CN2CCCN(Cc3ncc[nH]3)CC2)c1)c1ccc(Cl)c(Cl)c1 | 0.795 µM
96 | Cc1ccc2[nH]c(-c3ccc(C=CC(=O)NC4CCN(Cc5ccccc5)CC4)cc3)nc2c1 | 0.684 µM
97 | CC(C)NCc1cccc(-c2ccc(NS(=O)(=O)c3cccc4cccnc34)cc2)c1 | 1.08 µM
98 | CCN(CC)CCCNc1nccc(N(C)c2ccc(NC(=O)Nc3cc(C(F)(F)F)ccc3F)cc2)n1 | 1.05 µM
99 | NCCNc1ccnc2cc(Cl)ccc12 | 0.125 µM

— ChEMBL document CHEMBL1157539, “Thousands of chemical starting points for antimalarial lead identification” (Nature, 2010)
